Reference: patent US11207320B2, “Compositions and methods for cancer expressing PDE3A or SLFN12” (The Broad Institute, Inc., priority 2015, dated 2021)

Tested on: 766 cancer cell lines
Assay: Large-scale cell-line viability measurements (766 cancer cell lines, 72 h, AUC)
Assay type: cell-based, human
Conditions: 72 hours
Protocol: Cell lines were treated for 72 hours with concentrations ranging from 66.4 μM-2 nM in 2-fold step dilutions.
To characterize cellular sensitivity to DNMDP further, 766 genomically characterized cancer cell lines were screened for DMNDP sensitivity at concentrations ranging from 66.4 μM to 2 nM in 2-fold dilution steps for 72 hours. From these cell lines, 22 cell lines were categorized as sensitive with a robust Z-score lower than −4, which represented multiple lineages including multiple melanoma cell lines, amongst others (Table 1).
The sensitivity of […] cancer cell lines (CCLs) was measured drawn from 23 different lineages to DNMDP. Each cell line was plated in its preferred media in white opaque 1536-plates at a density of 500 cells/well. After incubating overnight, DNMDP was added by acoustic transfer at 16 concentrations ranging from 66.4 μM-2 nM in 2-fold steps in duplicate (Labcyte Echo 555, Labcyte Inc., Sunnyvale, Calif.). After 72 hours treatment, cellular ATP levels were measured as a surrogate for viability (CELLTITERGLO®, Promega Corporation, Madison, Wis.) according to manufacturer's protocols using a ViewLux Microplate Imager (PerkinElmer, Waltham, Mass.) and normalized to background (media-only) and vehicle (DMSO)-treated control wells.
Concentration response curves were fit using nonlinear fits to 2- or 3-parameter sigmoid functions through all 16 concentrations with the low-concentration asymptote set to the DMSO-normalized value, and an optimal 8-point dose curve spanning the range of compound-sensitivity was identified. The area under the 8-point dose curve (AUC) was computed by numeric integration as a metric for sensitivity for further analysis. Similar sensitivity measurements have been obtained for a collection of 480 other compounds, enabling analyses that identify cell lines responding uniquely to DNMDP (see Broad Institute Cancer Therapeutics Response Portal, a dataset to identify comprehensively relationships between genetic and lineage features of human cancer cell lines and small-molecule sensitivities for complete list of compounds).

[1] = MOLM6 (HAEMATOPOIETIC AND LYMPHOID TISSUE)
[2] = MOLT13 (HAEMATOPOIETIC AND LYMPHOID TISSUE)
[3] = MV411 (HAEMATOPOIETIC AND LYMPHOID TISSUE)
[4] = NALM6 (HAEMATOPOIETIC AND LYMPHOID TISSUE)
[5] = NB4 (HAEMATOPOIETIC AND LYMPHOID TISSUE)
[6] = NCO2 (HAEMATOPOIETIC AND LYMPHOID TISSUE)
[7] = OCIAML2 (HAEMATOPOIETIC AND LYMPHOID TISSUE)
[8] = OCILY19 (HAEMATOPOIETIC AND LYMPHOID TISSUE)
[9] = PECAPJ15 (UPPER AERODIGESTIVE TRACT)
[10] = PF382 (HAEMATOPOIETIC AND LYMPHOID TISSUE)
[11] = RPMI8402 (HAEMATOPOIETIC AND LYMPHOID TISSUE)
[12] = SCC4 (UPPER AERODIGESTIVE TRACT)
[13] = SNU1214 (UPPER AERODIGESTIVE TRACT)
[14] = U118MG (CENTRAL NERVOUS SYSTEM)
[15] = U266B1 (HAEMATOPOIETIC AND LYMPHOID TISSUE)
[16] = U937 (HAEMATOPOIETIC AND LYMPHOID TISSUE)

Structure (SMILES): CCN(CC)c1ccc(C2=NNC(=O)CC2C)cc1[N+](=O)[O-] (centres unmarked) [DNMDP, 6-(4-(diethylamino)-3-nitrophenyl)-5-methyl-4,5-dihydropyridazin-3(2H)-one]
- Robust Z-score (LU99 (LUNG)): −0.8744
- DNMDP AUC (LXF289 (LUNG)): 5.734
- Robust Z-score (LXF289 (LUNG)): −0.9454
- DNMDP AUC (MALME3M (SKIN)): 6.112
- Robust Z-score (MALME3M (SKIN)): −0.5486
- DNMDP AUC (MCF7 (BREAST)): 6.1256
- Robust Z-score (MCF7 (BREAST)): −0.5343
- DNMDP AUC (MEWO (SKIN)): 5.738
- Robust Z-score (MEWO (SKIN)): −0.9412
- DNMDP AUC (MKN7 (STOMACH)): 6.1453
- Robust Z-score (MKN7 (STOMACH)): −0.5136
- DNMDP AUC [1]: 6.0447
- Robust Z-score [1]: −0.6192
- DNMDP AUC [2]: 6.084
- Robust Z-score [2]: −0.578
- DNMDP AUC [3]: 5.6905
- Robust Z-score [3]: −0.991
- DNMDP AUC [4]: 5.7872
- Robust Z-score [4]: −0.8895
- DNMDP AUC [5]: 6.219
- Robust Z-score [5]: −0.4363
- DNMDP AUC (NCIH23 (LUNG)): 6.1854
- Robust Z-score (NCIH23 (LUNG)): −0.4716
- DNMDP AUC (NCIH1184 (LUNG)): 6.1776
- Robust Z-score (NCIH1184 (LUNG)): −0.4797
- DNMDP AUC (NCIH1355 (LUNG)): 6.171
- Robust Z-score (NCIH1355 (LUNG)): −0.4867
- DNMDP AUC (NCIH1435 (LUNG)): 5.9756
- Robust Z-score (NCIH1435 (LUNG)): −0.6918
- DNMDP AUC (NCIH1563 (LUNG)): 1.0887
- Robust Z-score (NCIH1563 (LUNG)): −5.821
- DNMDP AUC (NCIH1793 (LUNG)): 6.2189
- Robust Z-score (NCIH1793 (LUNG)): −0.4364
- DNMDP AUC (NCIH2009 (LUNG)): 5.7594
- Robust Z-score (NCIH2009 (LUNG)): −0.9187
- DNMDP AUC (NCIH2122 (LUNG)): 1.3105
- Robust Z-score (NCIH2122 (LUNG)): −5.588
- DNMDP AUC (NCIH2141 (LUNG)): 5.7218
- Robust Z-score (NCIH2141 (LUNG)): −0.9582
- DNMDP AUC [6]: 5.7088
- Robust Z-score [6]: −0.9718
- DNMDP AUC [7]: 5.8945
- Robust Z-score [7]: −0.7769
- DNMDP AUC [8]: 6.1512
- Robust Z-score [8]: −0.5075
- DNMDP AUC (ONCODG1 (OVARY)): 5.8296
- Robust Z-score (ONCODG1 (OVARY)): −0.845
- DNMDP AUC (PC14 (LUNG)): 6.2003
- Robust Z-score (PC14 (LUNG)): −0.4559
- DNMDP AUC [9]: 5.789
- Robust Z-score [9]: −0.8876
- DNMDP AUC [10]: 5.8519
- Robust Z-score [10]: −0.8216
- DNMDP AUC (RERFLCAD1 (LUNG)): 6.1862
- Robust Z-score (RERFLCAD1 (LUNG)): −0.4707
- DNMDP AUC (RKN (SOFT TISSUE)): 6.1579
- Robust Z-score (RKN (SOFT TISSUE)): −0.5004
- DNMDP AUC [11]: 5.9827
- Robust Z-score [11]: −0.6843
- DNMDP AUC (RVH421 (SKIN)): 1.4556
- Robust Z-score (RVH421 (SKIN)): −5.436
- DNMDP AUC [12]: 6.0502
- Robust Z-score [12]: −0.6135
- DNMDP AUC (SKCO1 (LARGE INTESTINE)): 5.688
- Robust Z-score (SKCO1 (LARGE INTESTINE)): −0.9936
- DNMDP AUC (SKLU1 (LUNG)): 6.0109
- Robust Z-score (SKLU1 (LUNG)): −0.6547
- DNMDP AUC (SKMEL3 (SKIN)): 1.2215
- Robust Z-score (SKMEL3 (SKIN)): −5.682
- DNMDP AUC (SKMEL5 (SKIN)): 5.9639
- Robust Z-score (SKMEL5 (SKIN)): −0.7041
- DNMDP AUC (SKNBE2 (AUTONOMIC GANGLIA)): 5.7717
- Robust Z-score (SKNBE2 (AUTONOMIC GANGLIA)): −0.9058
- DNMDP AUC (SKNSH (AUTONOMIC GANGLIA)): 5.8424
- Robust Z-score (SKNSH (AUTONOMIC GANGLIA)): −0.8316
- DNMDP AUC (SNU119 (OVARY)): 6.1473
- Robust Z-score (SNU119 (OVARY)): −0.5115
- DNMDP AUC (SNU620 (STOMACH)): 6.1039
- Robust Z-score (SNU620 (STOMACH)): −0.5571
- DNMDP AUC (SNU869 (BILIARY TRACT)): 5.7543
- Robust Z-score (SNU869 (BILIARY TRACT)): −0.9241
- DNMDP AUC [13]: 6.2071
- Robust Z-score [13]: −0.4488
- DNMDP AUC (SNU1272 (KIDNEY)): 6.0226
- Robust Z-score (SNU1272 (KIDNEY)): −0.6424
- DNMDP AUC (SUIT2 (PANCREAS)): 5.8956
- Robust Z-score (SUIT2 (PANCREAS)): −0.7757
- DNMDP AUC (T3M10 (LUNG)): 6.1867
- Robust Z-score (T3M10 (LUNG)): −0.4702
- DNMDP AUC (TE8 (OESOPHAGUS)): 6.2119
- Robust Z-score (TE8 (OESOPHAGUS)): −0.4437
- DNMDP AUC (TE125T (SOFT TISSUE)): 5.744
- Robust Z-score (TE125T (SOFT TISSUE)): −0.9349
- DNMDP AUC (TUHR14TKB (KIDNEY)): 5.8451
- Robust Z-score (TUHR14TKB (KIDNEY)): −0.8287
- DNMDP AUC [14]: 6.1481
- Robust Z-score [14]: −0.5107
- DNMDP AUC [15]: 6.1906
- Robust Z-score [15]: −0.4661
- DNMDP AUC [16]: 6.1777
- Robust Z-score [16]: −0.4796
